Where two headings read alike, the source gives them in different places.
What was measured:
GluN1/GluN2C NMDARs = GluN1/GluN2C NMDARs (Rattus norvegicus, UniProt P35439+Q00961); experiment: Two-electrode voltage-clamp recordings, Xenopus laevis oocytes expressing GluN1/GluN2C; format: cell-based; settings: saturating glutamate/glycine 100/30 µM; for EC50: mean [95% CI], read-out: EC50 (µM) [conf. int.]; for Emax: mean ± SEM, read-out: Maximal Degree of Modulation (% of control)
Experimental: (§1) cDNAs for rat wild type NMDAR subunits GluN1-1a (GenBank U11418, U08261; hereafter GluN1 or GluN1a), GluN1-1b (U08263, hereafter GluN1b), GluN2A (D13211), GluN2B (U11419), GluN2C (M91563), and GluN2D (L31611, modified as described in [Monyer et al., 1994]) were provided by Drs. S. Heinemann (Salk Institute), S. Nakanishi (Kyoto University), and P. Seeburg (University of Heidelberg). Site-directed mutagenesis was conducted using the QuikChange kit (Agilent Technologies, Santa Clara, CA) following the recommended protocol. DNA sequencing was used to verify all mutations. The amino acid numbering system started with the initiating methionine as residue number one. For expression in Xenopus laevis oocytes, cDNA constructs were linearized by restriction enzymes, and subsequently used to synthesize in vitro cRNAs following the manufacturer’s protocol (mMessage mMachine, Ambion, ThermoFisher Scientific, Waltham, MA).
(§2) Xenopus laevis stage VI oocytes (Ecocyte Biosciences, Austin, TX) were injected as previously described ([Hansen et al., 2013]) 2–7 days prior to recording with cRNA encoding the NMDAR subunits and stored at 15°C in media containing (in mM) 88 NaCl, 2.4 NaHCO3, 1 KCl, 0.33 Ca(NO3)2, 0.41 CaCl2, 0.82 MgSO4, 5 Tris-HCl; pH was adjusted to 7.4 with NaOH and the solution supplemented with 1 U/mL penicillin, 0.1 mg/mL gentamicin sulfate, and 1 μg/mL streptomycin. Two-electrode voltage-clamp recordings were performed at room temperature (21–23°C) using different internal solutions for voltage and current electrodes (0.3 M and 3.0 M KCl, respectively). All extracellular solutions were made from a solution containing (in mM) 90 NaCl, 1 KCl, 10 HEPES, 0.5 BaCl2, 0.01 EDTA (pH 7.4 with NaOH). Experiments were performed using an eight port Modular Valve Positioner (Hamilton Company, Reno, NV) and controlled by custom software (Easy Oocyte, Emory University, Atlanta, GA)to exchange solutions. Oocyte currents were recorded at a holding potential of −40 mV using a two-electrode voltage-clamp amplifier (OC-725B or OC-725C, Warner Instruments, Hamden, CT). […] In MTSEA experiments, fresh MTSEA solutions (0.2 mM) were prepared and utilized in less than 30 min to limit compound degradation.
(§3) Measurements are given as mean ± SEM unless otherwise indicated. The number of replicate experiments used was chosen to ensure a power level of at least 0.80 when α = 0.05 and when detecting appropriate effect sizes. EC50 and IC50 values and confidence intervals reported were calculated by averaging the log(EC50) or log(IC50) value, determining confidence intervals for mean log(EC50) or log(IC50), and converting back to units of molarity. Statistical significance evaluations (α set to 0.05) were performed using a one-way ANOVA with Dunnett’s multiple comparison test, a paired t–test, or other appropriate tests as described.

GluN1/GluN2A NMDARs = GluN1/GluN2A NMDARs (Rattus norvegicus, UniProt P35439+Q00959); experiment: Two-electrode voltage-clamp recordings, Xenopus laevis oocytes expressing GluN1/GluN2A; format: cell-based; settings: saturating glutamate/glycine 100/30 µM; for EC50: mean [95% CI], - = not fit, response at 30 µM differed by no more than 15% from control, read-out: EC50 (µM) [conf. int.]; for Emax: mean ± SEM, read-out: Maximal Degree of Modulation (% of control)
GluN1/GluN2A NMDARs, sequence (Q00959 23-1464, other chains not shown): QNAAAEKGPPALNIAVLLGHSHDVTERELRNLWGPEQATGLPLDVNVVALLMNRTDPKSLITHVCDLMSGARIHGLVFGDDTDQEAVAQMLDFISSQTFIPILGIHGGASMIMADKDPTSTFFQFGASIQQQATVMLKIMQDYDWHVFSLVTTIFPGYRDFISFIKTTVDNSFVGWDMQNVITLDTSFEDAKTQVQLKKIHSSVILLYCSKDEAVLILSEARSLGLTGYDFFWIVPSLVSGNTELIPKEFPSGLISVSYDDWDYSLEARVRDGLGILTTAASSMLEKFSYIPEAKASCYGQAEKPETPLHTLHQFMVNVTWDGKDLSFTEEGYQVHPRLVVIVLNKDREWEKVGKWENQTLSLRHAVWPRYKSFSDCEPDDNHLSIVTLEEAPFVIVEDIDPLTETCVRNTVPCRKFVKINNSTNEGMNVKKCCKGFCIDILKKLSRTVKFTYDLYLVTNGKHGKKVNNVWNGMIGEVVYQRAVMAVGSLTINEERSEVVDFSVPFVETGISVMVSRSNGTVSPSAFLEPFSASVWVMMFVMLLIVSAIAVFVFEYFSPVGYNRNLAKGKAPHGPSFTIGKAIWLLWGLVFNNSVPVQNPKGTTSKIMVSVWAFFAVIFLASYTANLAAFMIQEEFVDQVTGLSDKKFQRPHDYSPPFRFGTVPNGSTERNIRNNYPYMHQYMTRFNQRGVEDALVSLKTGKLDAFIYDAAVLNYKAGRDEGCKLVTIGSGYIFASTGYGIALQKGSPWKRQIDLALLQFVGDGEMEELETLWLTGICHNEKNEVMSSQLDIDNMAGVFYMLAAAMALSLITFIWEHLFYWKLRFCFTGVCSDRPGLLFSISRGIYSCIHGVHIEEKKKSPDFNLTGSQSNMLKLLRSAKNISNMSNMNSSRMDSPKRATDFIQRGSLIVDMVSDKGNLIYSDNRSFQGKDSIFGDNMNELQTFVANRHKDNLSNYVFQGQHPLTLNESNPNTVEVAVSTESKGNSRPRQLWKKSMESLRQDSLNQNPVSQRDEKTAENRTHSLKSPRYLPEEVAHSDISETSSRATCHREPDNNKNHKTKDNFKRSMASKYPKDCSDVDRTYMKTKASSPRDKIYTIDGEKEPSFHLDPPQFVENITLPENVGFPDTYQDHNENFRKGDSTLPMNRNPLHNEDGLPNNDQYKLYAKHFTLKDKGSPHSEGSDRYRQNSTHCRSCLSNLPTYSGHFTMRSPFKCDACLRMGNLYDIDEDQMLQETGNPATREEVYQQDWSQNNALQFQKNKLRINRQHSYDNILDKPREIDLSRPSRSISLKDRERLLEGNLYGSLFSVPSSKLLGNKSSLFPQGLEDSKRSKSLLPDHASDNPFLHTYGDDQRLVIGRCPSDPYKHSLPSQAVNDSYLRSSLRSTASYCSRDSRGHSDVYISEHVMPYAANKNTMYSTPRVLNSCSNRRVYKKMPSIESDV
Experimental: as §1, §2, §3

GluN1/GluN2D NMDARs = GluN1/GluN2D NMDARs (Rattus norvegicus, UniProt P35439+Q62645); experiment: Two-electrode voltage-clamp recordings, Xenopus laevis oocytes expressing GluN1/GluN2D; format: cell-based; settings: for Emax: mean ± SEM, read-out: Maximal Degree of Modulation (% of control)
GluN1/GluN2D NMDARs, sequence (Q62645 28-1323, other chains not shown): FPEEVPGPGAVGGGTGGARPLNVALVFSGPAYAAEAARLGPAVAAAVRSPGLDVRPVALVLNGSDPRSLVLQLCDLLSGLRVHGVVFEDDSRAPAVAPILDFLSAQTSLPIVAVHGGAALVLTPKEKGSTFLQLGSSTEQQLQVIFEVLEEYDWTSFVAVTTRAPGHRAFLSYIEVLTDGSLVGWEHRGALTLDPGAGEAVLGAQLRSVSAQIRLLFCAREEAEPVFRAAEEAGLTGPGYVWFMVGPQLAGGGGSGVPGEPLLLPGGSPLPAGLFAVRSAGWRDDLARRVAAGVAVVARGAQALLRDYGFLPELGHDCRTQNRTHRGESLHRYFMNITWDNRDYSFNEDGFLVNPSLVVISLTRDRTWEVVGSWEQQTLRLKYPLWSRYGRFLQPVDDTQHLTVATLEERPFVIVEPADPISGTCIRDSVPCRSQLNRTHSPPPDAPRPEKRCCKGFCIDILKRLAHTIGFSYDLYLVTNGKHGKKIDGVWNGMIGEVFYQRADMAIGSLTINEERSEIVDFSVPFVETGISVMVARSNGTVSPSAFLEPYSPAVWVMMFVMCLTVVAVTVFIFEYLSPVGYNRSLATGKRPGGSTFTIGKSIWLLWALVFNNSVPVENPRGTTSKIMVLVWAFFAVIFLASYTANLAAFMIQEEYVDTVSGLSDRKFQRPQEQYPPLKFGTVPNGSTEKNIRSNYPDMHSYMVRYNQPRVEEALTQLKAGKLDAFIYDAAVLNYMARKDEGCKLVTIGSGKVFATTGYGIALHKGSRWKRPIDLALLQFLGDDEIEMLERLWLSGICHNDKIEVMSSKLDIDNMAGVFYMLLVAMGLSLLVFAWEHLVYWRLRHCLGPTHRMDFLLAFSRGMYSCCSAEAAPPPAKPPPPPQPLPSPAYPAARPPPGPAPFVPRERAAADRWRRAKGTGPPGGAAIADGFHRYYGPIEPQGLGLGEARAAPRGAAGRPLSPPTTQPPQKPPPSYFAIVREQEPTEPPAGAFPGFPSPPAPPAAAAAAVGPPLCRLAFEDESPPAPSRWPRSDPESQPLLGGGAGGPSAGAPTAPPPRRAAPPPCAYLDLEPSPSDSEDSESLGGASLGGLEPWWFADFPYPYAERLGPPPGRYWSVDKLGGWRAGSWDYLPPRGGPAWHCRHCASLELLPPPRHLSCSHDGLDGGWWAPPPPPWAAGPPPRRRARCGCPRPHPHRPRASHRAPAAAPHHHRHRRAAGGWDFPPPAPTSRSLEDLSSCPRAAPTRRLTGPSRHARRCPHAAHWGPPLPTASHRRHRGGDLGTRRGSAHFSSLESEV
Experimental: cDNAs for rat wild type NMDAR subunits GluN1-1a (GenBank U11418, U08261; hereafter GluN1 or GluN1a), GluN1-1b (U08263, hereafter GluN1b), GluN2A (D13211), GluN2B (U11419), Glu[…]), and Glu[…], modified as described in [Monyer et al., 1994]) were provided by Drs. S. Heinemann (Salk Institute), S. Nakanishi (Kyoto University), and P. Seeburg (University of Heidelberg). Site-directed mutagenesis was conducted using the QuikChange kit (Agilent Technologies, Santa Clara, CA) following the recommended protocol. DNA sequencing was used to verify all mutations. The amino acid numbering system started with the initiating methionine as residue number one. For expression in Xenopus laevis oocytes, cDNA constructs were linearized by restriction enzymes, and subsequently used to synthesize in vitro cRNAs following the manufacturer's protocol (mMessage mMachine, Ambion, ThermoFisher Scientific, Waltham, MA). […] All extracellular solutions were made from a solution containing (in mM) 90 NaCl, 1 KCl, 10 HEPES, 0.5 BaCl2, 0.01 EDTA (pH 7.4 with NaOH). Experiments were performed using an eight port Modular Valve Positioner (Hamilton Company, Reno, NV) and controlled by custom software (Easy Oocyte, Emory University, Atlanta, GA)to exchange solutions. Oocyte currents were recorded at a holding potential of -40 mV using a two-electrode voltage-clamp amplifier (OC-725B or OC-725C, Warner Instruments, Hamden, CT). […] Measurements are given as mean ± SEM unless otherwise indicated. […] EC50 and IC50 values and confidence intervals reported were calculated by averaging the log(EC50) or log(IC50) value, determining confidence intervals for mean log(EC50) or log(IC50), and converting back to units of molarity. Statistical significance evaluations (α set to 0.05) were performed using a one-way ANOVA with Dunnett's multiple comparison test, a paired t-test, or other appropriate tests as described.

GluN1/GluN2B NMDARs = GluN1/GluN2B NMDARs (Rattus norvegicus, UniProt P35439+Q00960); experiment: Two-electrode voltage-clamp recordings, Xenopus laevis oocytes expressing GluN1/GluN2B; format: cell-based; settings: saturating glutamate/glycine 100/30 µM; for EC50: mean [95% CI], - = not fit, response at 30 µM differed by no more than 15% from control, read-out: EC50 (µM) [conf. int.]; for Emax: mean ± SEM, read-out: Maximal Degree of Modulation (% of control)
GluN1/GluN2B NMDARs, sequence (Q00960 27-1482, other chains not shown): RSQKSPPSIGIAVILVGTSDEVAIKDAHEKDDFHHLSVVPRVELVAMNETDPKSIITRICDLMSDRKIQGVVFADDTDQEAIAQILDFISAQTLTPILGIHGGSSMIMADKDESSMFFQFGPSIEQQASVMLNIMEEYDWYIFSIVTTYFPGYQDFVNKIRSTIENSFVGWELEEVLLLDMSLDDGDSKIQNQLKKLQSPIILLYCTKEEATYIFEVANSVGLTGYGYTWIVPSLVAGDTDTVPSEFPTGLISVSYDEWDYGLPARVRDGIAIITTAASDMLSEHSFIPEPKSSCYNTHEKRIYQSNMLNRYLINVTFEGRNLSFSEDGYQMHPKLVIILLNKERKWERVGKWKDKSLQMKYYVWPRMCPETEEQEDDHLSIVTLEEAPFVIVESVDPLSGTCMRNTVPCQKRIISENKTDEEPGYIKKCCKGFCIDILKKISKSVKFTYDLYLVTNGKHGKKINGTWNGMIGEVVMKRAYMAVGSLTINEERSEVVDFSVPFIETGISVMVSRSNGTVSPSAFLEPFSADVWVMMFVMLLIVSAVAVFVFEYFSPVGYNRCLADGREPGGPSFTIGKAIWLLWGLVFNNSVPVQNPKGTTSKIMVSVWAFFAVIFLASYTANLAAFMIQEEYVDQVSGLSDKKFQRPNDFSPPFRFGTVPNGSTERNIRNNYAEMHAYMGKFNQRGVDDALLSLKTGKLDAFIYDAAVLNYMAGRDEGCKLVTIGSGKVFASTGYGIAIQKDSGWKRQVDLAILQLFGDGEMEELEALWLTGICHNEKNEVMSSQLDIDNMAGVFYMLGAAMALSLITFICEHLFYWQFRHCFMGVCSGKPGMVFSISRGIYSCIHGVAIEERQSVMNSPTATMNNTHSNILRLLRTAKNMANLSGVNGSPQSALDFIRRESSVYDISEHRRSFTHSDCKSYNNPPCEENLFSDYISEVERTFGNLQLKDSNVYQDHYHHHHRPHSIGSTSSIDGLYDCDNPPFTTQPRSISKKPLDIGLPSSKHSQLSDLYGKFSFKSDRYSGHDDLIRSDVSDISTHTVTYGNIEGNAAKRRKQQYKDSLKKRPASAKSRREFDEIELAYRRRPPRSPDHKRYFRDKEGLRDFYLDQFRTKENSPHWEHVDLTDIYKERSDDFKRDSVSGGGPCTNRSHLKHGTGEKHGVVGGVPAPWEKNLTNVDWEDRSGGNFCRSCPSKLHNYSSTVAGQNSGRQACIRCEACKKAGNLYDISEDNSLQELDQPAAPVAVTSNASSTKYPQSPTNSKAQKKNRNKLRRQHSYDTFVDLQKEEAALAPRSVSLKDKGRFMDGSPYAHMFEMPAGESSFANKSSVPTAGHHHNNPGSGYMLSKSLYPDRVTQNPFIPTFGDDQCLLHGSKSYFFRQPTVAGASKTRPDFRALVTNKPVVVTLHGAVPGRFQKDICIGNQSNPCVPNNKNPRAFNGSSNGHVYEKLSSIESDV
Experimental: as §1, §2, §3

NMDAR = system: NMDAR; design: method as in Kew et al., 1996; settings: ref Kew et al., 1996; cited from earlier work
[1] = saturating glutamate/glycine 100/30 µM, mean [95% CI], read-out: EC50 (µM) [conf. int.]
[2] = saturating glutamate/glycine 100/30 µM

| EC50 (GluN1/GluN2C NMDARs) | Emax (GluN1/GluN2C NMDARs) | EC50 (GluN1/GluN2A NMDARs) | EC50 (GluN1/GluN2D NMDARs; [1]) | Emax (GluN1/GluN2D NMDARs; [2]) | EC50 (GluN1/GluN2B NMDARs) | Emax (GluN1/GluN2B NMDARs) | Emax (GluN1/GluN2A NMDARs) | melting point | SMILES | residual current at saturating levels (NMDAR) | EC50 (GluN1/GluN2D NMDARs; read-out: Control Glutamate EC50 (µM) [conf. int.], glutamate EC50 in 30 µM glycine, absence of EU1794-27) |
| --- | --- | --- | --- | --- | --- | --- | --- | --- | --- | --- | --- |
| 4 µM | 140% | 18 µM | 9.3 µM | – | 2.5 µM | 71% | 36% | 152 to 154 °C | CC(C)OC(=O)c1c(NC(=O)CC2SC(=N)NC2=O)sc2c1CCCC2 (stereo not shown) [EU1794-5, isopropyl 2-(2-(2-imino-4-oxothiazolidin-5-yl)acetamido)-4,5,6,7-tetrahydrobenzo[b]thiophene-3-carboxylate] | – | – |
| 0.74 µM | 32% | 1.1 µM | 0.43 µM | 46% | 1.1 µM | 43% | 19% | 229 °C (dec.) | CC1CCc2c(sc(NC(=O)CC3SC(=N)NC3=O)c2C(=O)OC(C)C)C1 (stereo not shown) [EU1794-19, isopropyl 2-(2-(2-imino-4-oxothiazolidin-5-yl)acetamido)-6-methyl-4,5,6,7-tetrahydrobenzo[b]thiophene-3-carboxylate] | – | – |

The next lines start with the compound.

| SMILES | EC50 (GluN1/GluN2C NMDARs) | Emax (GluN1/GluN2C NMDARs) | EC50 (GluN1/GluN2A NMDARs) | EC50 (GluN1/GluN2D NMDARs; [1]) | Emax (GluN1/GluN2D NMDARs; [2]) | EC50 (GluN1/GluN2B NMDARs) | Emax (GluN1/GluN2B NMDARs) | Emax (GluN1/GluN2A NMDARs) | melting point | residual current at saturating levels (NMDAR) | EC50 (GluN1/GluN2D NMDARs; read-out: Control Glutamate EC50 (µM) [conf. int.], glutamate EC50 in 30 µM glycine, absence of EU1794-27) |
| --- | --- | --- | --- | --- | --- | --- | --- | --- | --- | --- | --- |
| N=C1NC(=O)C(CC(=O)Nc2sc3c(c2C(=O)OCc2ccccc2)CCCC3)S1 (stereo not shown) [EU1794-25, benzyl 2-(2-(2-imino-4-oxothiazolidin-5-yl)acetamido)-4,5,6,7-tetrahydrobenzo[b]thiophene-3-carboxylate] | 0.77 µM | 180% | > 30 µM | 1 µM | 250% | 1 µM | 220% | – | – | – | – |
| CC(C(O)c1ccc(O)cc1)N1CCC(Cc2ccccc2)CC1 (stereo not shown) [ifenprodil] | – | – | – | – | – | – | – | – | – | ~ 10% | – |
| CCCCOC(=O)c1c(NC(=O)CC2SC(=N)NC2=O)sc2c1CCCC2 (stereo not shown) [EU1794-29, butyl 2-(2-(2-imino-4-oxothiazolidin-5-yl)acetamido)-4,5,6,7-tetrahydrobenzo[b]thiophene-3-carboxylate] | 3.8 µM | 130% | 3.7 µM | 5.7 µM | 166% | 1.4 µM | 140% | 59% | – | – | – |
| N[C@@H](CCC(=O)O)C(=O)O [Glutamate, reference compound] | – | – | – | – | – | – | – | – | – | – | 0.21 µM |
